US20250313563A1, “GLYCOGEN SYNTHASE KINASE 3 INHIBITORS AND USES THEREOF” (The Broad Institute, Inc., priority 2022, published 2025)
Where two headings read alike, the source gives them in different places.

Assays:
[1] = target: GSK3b (GST-full length GSK3b) (Homo sapiens (Human), UniProt P49841); experiment: GSK3b TR-FRET kinase assay; format: biochemical
In short: (§1)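 Full-length GST-tagged human enzyme (1 nM) is exposed to test compound for 30 min before substrates are added. Phosphorylation of a primed biotinylated glycogen synthase peptide proceeds 100 min at room temperature at low ATP (4 μM α; 2 μM β) or high ATP (1 mM). Product is quantified by TR-FRET.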

[2] = target: GSK3α (GST-full length GSK3α) (Homo sapiens (Human), UniProt P49840); experiment: GSK3α TR-FRET kinase assay; format: biochemical
GSK3α (GST-full length GSK3α), sequence (P49840 whole entry): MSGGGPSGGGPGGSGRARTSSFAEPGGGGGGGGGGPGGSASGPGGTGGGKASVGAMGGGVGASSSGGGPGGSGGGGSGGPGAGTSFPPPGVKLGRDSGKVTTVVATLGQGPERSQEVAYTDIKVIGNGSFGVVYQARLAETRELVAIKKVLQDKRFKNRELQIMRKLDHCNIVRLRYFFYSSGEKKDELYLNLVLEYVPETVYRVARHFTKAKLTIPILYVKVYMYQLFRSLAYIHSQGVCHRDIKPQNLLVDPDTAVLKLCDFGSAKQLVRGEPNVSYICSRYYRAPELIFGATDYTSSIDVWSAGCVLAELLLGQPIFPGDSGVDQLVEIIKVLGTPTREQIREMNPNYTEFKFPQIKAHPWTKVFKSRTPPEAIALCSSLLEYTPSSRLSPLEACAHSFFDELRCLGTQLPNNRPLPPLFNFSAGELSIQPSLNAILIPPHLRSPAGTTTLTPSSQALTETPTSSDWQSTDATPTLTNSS
In short: as §1

[3] = 1 nM GSK3b, 2 μM ATP, 30 minute preincubation, geometric mean, read-out: GSK3-B TR-FRET BIOCHEMICAL (TR-FRET), GMean, IC50
[4] = 1 nM GSK3α, 4 μM ATP, 30 minute preincubation, geometric mean, read-out: GSK3-A TR-FRET BIOCHEMICAL (TR-FRET), GMean, IC50
[5] = 1 nM GSK3b, 2 μM ATP, 30 minute preincubation, Table 16, read-out: GSK3-B TR-FRET BIOCHEMICAL (TR-FRET), IC50
[6] = read-out: GSK3-B (TR-FRET 1 mM ATP), GMean, IC50, 1 mM ATP, geometric mean
[7] = 1 nM GSK3α, 4 μM ATP, 30 minute preincubation, Table 16, read-out: GSK3-A TR-FRET BIOCHEMICAL (TR-FRET), IC50
[8] = read-out: GSK3-A (TR-FRET 1 mM ATP), GMean, IC50, 1 mM ATP, geometric mean
[9] = 1 nM GSK3b, 2 μM ATP, 30 minute preincubation, Table 16, read-out: GSK3-B TR-FRET BIOCHEMICAL (TR-FRET)
[10] = 1 nM GSK3α, 4 μM ATP, 30 minute preincubation, Table 16, read-out: GSK3-A TR-FRET BIOCHEMICAL (TR-FRET)

GSK3b (GST-full length GSK3b), sequence (P49841 whole entry): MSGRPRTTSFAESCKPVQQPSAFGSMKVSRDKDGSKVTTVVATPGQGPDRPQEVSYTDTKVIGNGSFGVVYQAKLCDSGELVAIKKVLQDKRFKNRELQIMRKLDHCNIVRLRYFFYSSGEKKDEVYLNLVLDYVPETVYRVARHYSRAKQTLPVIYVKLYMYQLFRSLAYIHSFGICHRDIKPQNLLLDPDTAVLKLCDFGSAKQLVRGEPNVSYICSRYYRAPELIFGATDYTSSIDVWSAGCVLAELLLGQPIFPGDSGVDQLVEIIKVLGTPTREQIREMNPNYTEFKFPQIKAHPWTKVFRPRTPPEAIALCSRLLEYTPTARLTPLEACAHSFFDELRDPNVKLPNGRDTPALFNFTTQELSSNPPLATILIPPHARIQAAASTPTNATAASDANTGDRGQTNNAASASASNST

Structure (SMILES)	IC50 [1, 3]	IC50 [2, 4]	IC50 [1, 5]	IC50 [2, 7]	also measured
CC[C@]1(c2cccc(-c3cn(C)nc3C)c2)C2=C(CC(C)(C)CC2=O)Nc2n[nH]cc21 [Compound 945546]					IC50 [1, 9]: ≤ 0.1 µM; IC50 [1, 6]: 0.1 to 1 µM; IC50 [2, 10]: ≤ 0.1 µM; IC50 [2, 8]: ≤ 0.1 µM
CC1(C)CC(=O)C2=C(C1)Nc1n[nH]cc1C21COC2(CCC2)C1 (stereo not drawn) [Compound 911973]					IC50 ([1]; 1 nM GSK3b, 2 μM ATP, 30 minute preincubation, read-out: GSK3-B TR-FRET BIOCHEMICAL (TR-FRET), IC50): 0.1 to 1 µM; IC50 ([2]; 1 nM GSK3α, 4 μM ATP, 30 minute preincubation, read-out: GSK3-A TR-FRET BIOCHEMICAL (TR-FRET), IC50): 0.1 to 1 µM
CC[C@]1(c2cccc(-c3ccncc3)c2)C2=C(Nc3n[nH]cc31)[C@@H](F)C(C)(C)CC2=O [Compound 959344]					IC50 [1, 9]: > 5 µM; IC50 [2, 10]: > 5 µM
CC1(C)CC(=O)C2=C(C1)Nc1n[nH]cc1C2(C)c1cccc(Br)c1 (stereo not drawn) [Compound 789277]	0.1 to 1 µM	≤ 0.1 µM			
CC(C)c1nc(S(=O)(=O)N2CCC3(CC2)C2=C(CC(C)(C)CC2=O)Nc2n[nH]cc23)cn1C [Compound 945663]					IC50 [1, 9]: ≤ 0.1 µM; IC50 [2, 10]: ≤ 0.1 µM
Cn1cc(-c2cccc([C@@]3(C)C4=C(CC(C)(C)CC4=O)Nc4n[nH]c(CC(C)(C)C)c43)c2)cn1 [Compound 126367]					IC50 [1, 6]: > 5 µM; IC50 [2, 8]: > 5 µM
CCC1(c2cccc(-c3ccncc3C)c2)C2=C(CC(C)(C)CC2=O)Nc2n[nH]c(C(F)(F)F)c21 (stereo not drawn) [Compound 945527]					IC50 [1, 9]: ≤ 0.1 µM; IC50 [1, 6]: 0.1 to 1 µM; IC50 [2, 10]: ≤ 0.1 µM; IC50 [2, 8]: ≤ 0.1 µM
CC1(C)CC(=O)C2=C(C1)Nc1n[nH]cc1C21CCCS(=O)(=O)CC1 (stereo not drawn) [Compound 927343]					IC50 [1, 9]: 0.1 to 1 µM; IC50 [2, 10]: ≤ 0.1 µM
CC[C@]1(c2ccccc2)C2=C(C[C@@]3(CCNC3=O)CC2=O)Nc2n[nH]cc21 [Compound 950160]					IC50 [1, 9]: > 5 µM; IC50 [2, 10]: 1 to 5 µM
CCC1(COC)C2=C(CC(C)(C)CC2=O)Nc2n[nH]cc21 (stereo not drawn) [Compound 841866]			> 5 µM	> 5 µM	
CCC1(c2cccc(OCCOC)c2)C2=C(CC(C)(C)CC2=O)Nc2n[nH]cc21 (stereo not drawn) [Compound 801446]	> 1.67 µM	0.1 to 1 µM			
O=C1C2=C(Nc3n[nH]cc3C23CCOCC3)[C@@H]2CC[C@H]1C2 [Compound 912081]					IC50 [1, 9]: 1 to 5 µM; IC50 [2, 10]: 0.1 to 1 µM
CC1(C)CC(=O)C2=C(C1)Nc1n[nH]cc1C2(C)c1cc(C(F)(F)F)ccc1F (stereo not drawn) [Compound 810376]	0.1 to 1 µM	≤ 0.1 µM			
CCC1(c2cccc(-c3cnnc(C)c3)c2)C2=C(CC(C)(C)CC2=O)Nc2n[nH]cc21 (stereo not drawn) [Compound 943994]					IC50 [1, 9]: ≤ 0.1 µM; IC50 [1, 6]: 1 to 5 µM; IC50 [2, 10]: ≤ 0.1 µM; IC50 [2, 8]: 0.1 to 1 µM
CCC1(c2cccc(-c3ccnc(CO)c3)c2)C2=C(CC(C)(C)CC2=O)Nc2n[nH]cc21 (stereo not drawn) [Compound 943540]					IC50 [1, 9]: 0.1 to 1 µM; IC50 [2, 10]: ≤ 0.1 µM
CCC1(c2cccc(Nc3ncccn3)c2)C2=C(CC(C)(C)CC2=O)Nc2n[nH]cc21 (stereo not drawn) [Compound 945943]					IC50 [1, 9]: 0.1 to 1 µM; IC50 [2, 10]: ≤ 0.1 µM
CC[C@]1(c2cccc(C(F)(F)F)c2)C2=C(CCN(c3ccc(OC)cc3)C2=O)Nc2n[nH]cc21 [Compound 948227]	> 5 µM	1 to 5 µM			
CCC1(c2cccc(N3CCC3)c2)C2=C(CC(C)(C)CC2=O)Nc2n[nH]cc21 (stereo not drawn) [Compound 889631]			0.1 to 1 µM	0.1 to 1 µM	
C[C@H]1CC(=O)C2=C(C1)Nc1n[nH]cc1[C@]2(C)c1ccccc1 [Compound 789332]	0.1 to 1 µM	0.1 to 1 µM			
CC[C@]1(c2cccc(C(F)(F)F)c2)C2=C(CCN(c3ccc(F)cc3)C2=O)Nc2n[nH]cc21 [Compound 948225]	> 5 µM	1 to 5 µM			
COc1ccc(S(=O)(=O)N2CCC3(CC2)C2=C(CC(C)(C)CC2=O)Nc2n[nH]cc23)cc1F [Compound 947478]					IC50 [1, 9]: ≤ 0.1 µM; IC50 [2, 10]: ≤ 0.1 µM
CCC1(c2cccc(N3CCCCCC3)c2)C2=C(CC(C)(C)CC2=O)Nc2n[nH]cc21 (stereo not drawn) [Compound 885088]			0.1 to 1 µM	0.1 to 1 µM	
CC1(C)CC(=O)C2=C(C1)Nc1n[nH]cc1C21CCN(CC(F)(F)F)CC1 [Compound 874528]					IC50 [1, 9]: 0.1 to 1 µM; IC50 [2, 10]: ≤ 0.1 µM

The next lines start with results.

IC50 [1, 3]	IC50 [2, 4]	IC50 [1, 5]	IC50 [2, 7]	Structure (SMILES)	also measured
≤ 0.1 µM	≤ 0.1 µM			CCC1(c2cccc(Br)c2)C2=C(CC(C)CC2=O)Nc2n[nH]c(C(F)(F)F)c21 (stereo not drawn) [Compound 826715]	
		≤ 0.1 µM	≤ 0.1 µM	CC[C@]1(c2cccc(-c3ccncc3F)c2)C2=C(CC(C)(C)NC2=O)Nc2n[nH]c(C(F)F)c21 [Compound 951612]	IC50 [1, 6]: 1 to 5 µM; IC50 [2, 8]: 0.1 to 1 µM
≤ 0.1 µM	≤ 0.1 µM			CCC1(c2cccc(-c3ccnc(C)c3C)c2)C2=C(CC(C)(C)NC2=O)Nc2n[nH]c(C)c21 (stereo not drawn) [Compound 948187]	
> 5 µM	> 5 µM			CC[C@@]1(c2cccc(-c3cnn(C(C)(C)C)c3)c2)C2=C(CC(C)(C)NC2=O)Nc2n[nH]cc21 [Compound 949107]	
		≤ 0.1 µM	≤ 0.1 µM	CCC1(c2cccc(-c3ccnn3CCC(C)C)c2)C2=C(CC(C)(C)CC2=O)Nc2n[nH]cc21 (stereo not drawn) [Compound 929401]	
		0.1 to 1 µM	0.1 to 1 µM	CCC1(c2cccc(-c3c(C)nn(C)c3C)c2)C2=C(CC(C)(C)CC2=O)Nc2n[nH]c(C)c21 (stereo not drawn) [Compound 913026]	
		≤ 0.1 µM	≤ 0.1 µM	CCC1(c2cccc(S(=O)(=O)c3ccccc3)c2)C2=C(CC(C)(C)CC2=O)Nc2n[nH]cc21 (stereo not drawn) [Compound 913123]	IC50 [1, 6]: 0.1 to 1 µM; IC50 [2, 8]: ≤ 0.1 µM
		0.1 to 1 µM	≤ 0.1 µM	CC[C@]1(c2cccc(N(C)c3ncccn3)c2)C2=C(CC(C)(C)NC2=O)Nc2n[nH]c(C(F)F)c21 [Compound 951736]	
0.1 to 1 µM	≤ 0.1 µM			CCC1(c2cccc(S(=O)(=O)C(C)C)c2)C2=C(CC(C)(C)NC2=O)Nc2[nH]nc(C)c21 (stereo not drawn) [Compound 947870]	
		≤ 0.1 µM	≤ 0.1 µM	CC[C@@]1(c2cccc(N(C)c3ncccn3)c2)C2=C(CC(C)(C)NC2=O)Nc2n[nH]c(F)c21 [Compound 949648]	IC50 [1, 6]: 1 to 5 µM; IC50 [2, 8]: ≤ 0.1 µM
≤ 0.1 µM	≤ 0.1 µM			CCC1(c2cccc(N3CCOCC3)c2)C2=C(CC(C)(C)CC2=O)Nc2n[nH]c(C(F)(F)F)c21 (stereo not drawn) [Compound 810507]	
> 5 µM	> 5 µM			CCC1(c2cccc(-c3ccnc(C)c3)c2)C2=C(CC(C)(C)NC2=O)Nc2n[nH]c(C)c21 (stereo not drawn) [Compound 948414]	
		> 5 µM	> 5 µM	CCC1(c2cccc(-c3c(C)cnc4ccccc34)c2)C2=C(CC(C)(C)NC2=O)Nc2n[nH]cc21 (stereo not drawn) [Compound 950825]	
> 5 µM	1 to 5 µM			CCC1(c2cccc(-c3cn(C)nc3C)c2)C2=C(CC(C)(C)N(C)C2=O)Nc2n[nH]cc21 (stereo not drawn) [Compound 949008]	
		1 to 5 µM	0.1 to 1 µM	CC[C@]1(c2cccc(-c3cnn(Cc4ccc(OC)cc4)c3)c2)C2=C(CC(C)(C)NC2=O)Nc2n[nH]cc21 [Compound 951838]	
≤ 0.1 µM	≤ 0.1 µM			CCC1(c2cccc(-c3ccnc(N4CCOCC4)c3)c2)C2=C(CC(C)(C)NC2=O)Nc2n[nH]cc21 (stereo not drawn) [Compound 948653]	
		1 to 5 µM	0.1 to 1 µM	CC[C@@]1(c2cccc(OC)c2)C2=C(CC(C)(C)NC2=O)Nc2n[nH]c(C)c21 [Compound 949337]	
		≤ 0.1 µM	≤ 0.1 µM	CCC1(c2cccc(-c3cnn4c3CCCC4)c2)C2=C(CC(C)(C)CC2=O)Nc2n[nH]c(C)c21 (stereo not drawn) [Compound 884002]	
0.1 to 1 µM	0.1 to 1 µM			CC[C@]1(c2cccc(-c3ccnc(C)c3C)c2)C2=C(CC(C)(C)NC2=O)Nc2n[nH]c(C(F)(F)F)c21 [Compound 948181]	
